Measurements: patent EP4005570B1, “P[…] USE IN TREATING RETT SYNDROME” (Prilenia Neurotherapeutics Ltd., priority 2016, dated 2018)
Values joined by “and” are separate entries in the source; they are usually repeats but may differ in a detail not shown here. Equal entries are not always repeated. Where two headings read alike, the source gives them in different places.

Experiments:
[1] = test system: patient afflicted with RTT; settings: periodic administration (daily or twice daily), intravenously or orally
[2] = test system: female MeCP2 (BIRD) mouse model of RTT
Description: (§1) Dosing commenced when mice were ~5.5 weeks of age and continued through the end of behavioral testing. Behavioral testing was done at 8 and 12 weeks of age.
(§2) Female MeCP2 ([…], HET) mice and wild type (MeCP2_WT, WT) littermates were received in two cohorts at ~4.5 weeks of age from Jackson Laboratories. They were assigned unique identification numbers and group-housed in opti-MICE cages (Animal Care Systems, CO). All animals were examined and weighed prior to initiation and throughout the study to assure adequate health and suitability and to minimize nonspecific stress associated with manipulation. During the course of the study, 12/12 light/dark cycle was maintained. The room temperature was maintained between 20 and 23°C with a relative humidity maintained around 50%. Chow and water was provided ad libitum for the duration of the study. The tests were performed during the animal's light cycle phase.
(§3) Data from standard tests were analyzed by genotype (t-test) and by treatment (ANOVA) followed by post-hoc comparisons where appropriate. For some measures (i.e. body weights and PPI), repeated-measures ANOVAs were performed. For clasping data, N-1 two-proportional tests were performed. An effect was considered significant if p < 0.05. All data are represented as the mean and standard error to the mean (s.e.m). Values ± 2 standard deviations from the mean were considered outliers.

BDNF = settings: whole brain; 3 and 30 mg/kg BID; vs MeCP2_HET vehicle
Description: Mice were euthanized via cervical dislocation and decapitated. From 10 mice/treatment group, whole brains were collected, weighed, and then frozen on dry ice. Samples were stored at - 80°C until analysis of brain-derived neurotrophic factor (BDNF).
Once tissues were disrupted, samples were allowed to incubate at room temperate for 5 minutes.
Briefly, 150µL of Chloroform (Cat # C2432, Sigma-Aldrich, St. Louis, MO) was added and samples were shaken vigorously for 15 seconds followed by 3-minute incubation at room temperature. The aqueous phase was separated from the organic phase by centrifugation at 6,000 x g (Beckman Coulter Avanti J-30I), 4°C for 15 minutes. The aqueous phase was then transferred to a new 96-well block and total RNA was precipitated with equal volume of 70% ethanol. Content was transferred to an RNeasy 96-well plate, followed by centrifuge at 6,000-x g (Beckman Coulter Avanti J-30I), at room temperate for 4 minutes. […] RNA was eluted with RNase-Free water.
Samples were quantified using NanoDrop 8000 (Thermo Scientific). […]
Relative quantity of the PCR product (relative to the calibrator) was calculated as follows: [formula] […]
Geometric mean for the three housekeeping genes was calculated as follows: [formula]
Relative level of target gene was calculated as follows: Relative Quantity of Target gene÷Geometric mean of housekeeping genes [formula] […]

[3] = test system: female MeCP2 (BIRD) mouse model of RTT; settings: for Recovery (%) Gait / Recovery (%) Paw Features / Recovery (%) Paw Positioning / Recovery (%) Body Motion / Recovery (%) Rhythmicity: HET mice
Description: as §1, §2
Mice were placed in the NeuroCube for a 5 min test. The most dominant of the features collected that define the disease phenotype (symptom descriptors) was identified and ranked. Complex bioinformatic algorithms were employed to calculate the discrimination probability between the WT and the BIRD mice and detect a test compound's ability to reverse the disease phenotype. Discriminations between mutant and wild type was calculated as well as the recovery of disease features in HET mice treated with the test compound.
The output of NeuroCube is a set of dozens of behavioral features that are submitted for analysis with machine learning techniques used in bioinformatics. Many of these features are correlated (e.g. rearing counts and supported rearing counts). Therefore, PGI forms statistically independent combinations of the original features (further referred to as de-correlated features) that discriminate between the two groups more effectively.
Each de-correlated feature extracts information from the whole cluster of the original features, so the new feature space has lower dimensionality. Next, PGI applies a proprietary feature ranking algorithm to score each feature's discrimination power (ability to separate the two groups, e.g. control and disease).
Ranking is an important part of the analyses because it weighs each feature change by its relevance: if there is a significant change in some irrelevant feature measured for a particular phenotype, the low rank of this feature will automatically reduce the effect of such change in the analyses, so there is no need to resort to the conventional "feature selection" approach and discard information buried in the less informative features. Ranking algorithm can be applied to either original or the new features to gain insight about the key control-disease differences (see Figure 1).
In the new feature space, the overlap between the "clouds" (Gaussian distributions approximating the groups of mice in the ranked de-correlated features space) serves as a quantitative measure of separability ("distinguishability") between the two groups (see Figure 2). For visualization purposes, each cloud was plotted with its semi-axes equal to the one standard deviation along the corresponding dimensions.

[4] = test system: female MeCP2 (BIRD) mouse model of RTT; settings: for startle response: vs vehicle-treated HET mice
Description: as §1, §2
Mice were placed in the PPI chambers (Med Associates) for a 5 min session of white noise (70 dB) habituation.
The inter-trial interval was variable with an average of 15 s (range from 10 to 20 s).
as §3

neuroblastoma cell line = settings: S1R-dependent manner (Geva 2016); cited from earlier work
[5] = 12 weeks, 30 mg/kg BID, 30 mg/kg
[6] = 12 weeks, 30 mg/kg BID, listed as pridopidine, 30 mg/kg

## CCCN1CCC(c2cccc(S(C)(=O)=O)c2)CC1 [Pridopidine, 4-[3-(methylsulfonyl)phenyl]-1-propyl-piperidine]
[1]
  treatment of the patient afflicted with RTT: effective to treat the patient
[2]; 3 mg/kg BID, 8 and 12 weeks, vs HET-vehicle
  hindlimb clasping: did not have a significant effect
[2]; 30 mg/kg BID, 12 weeks
  hindlimb clasping: this effect was not seen
BDNF
  BDNF I mRNA expression: None of the treatments had a significant effect
  BDNF VI mRNA expression: None of the treatments had a significant effect
[3]; 3 mg/kg BID, compared with vehicle-treated mutants, age not stated
  gait measures: differed significantly
[3]; 3 mg/kg, 8 weeks of age, Figure 8A
  recovery of overall gait features: no recovery
[3]; 3 mg/kg, 12 weeks of age, Figure 9A
  recovery of overall gait features: no recovery
[3]; 30 mg/kg, 8 weeks of age, Figure 8B
  recovery of overall gait features: 45% and 55%
[3]; 30 mg/kg, 8 weeks of age, Figure 8B, listed as pridopidine
  recovery of overall gait features: significant recovery
[3]; 30 mg/kg, 12 weeks of age, Figure 9B
  recovery of overall gait features: 55%
[3]; 8 weeks, 3 mg/kg BID
  Recovery (%) Gait: 38%
  Recovery (%) Paw Features: 0%
  Recovery (%) Paw Positioning: 8%
[3]; 8 weeks, 3 mg/kg BID, 3 mg/kg
  Recovery (%) Body Motion: 82%
[3]; 8 weeks, 3 mg/kg BID, listed as pridopidine, 3 mg/kg
  Recovery (%) Body Motion: showed efficacy
[3]; 8 weeks, 30 mg/kg BID
  Recovery (%) Gait: 71%
  Recovery (%) Paw Features: 63%
  Recovery (%) Paw Positioning: 35%
[3]; 8 weeks, 30 mg/kg BID, 30 mg/kg
  Recovery (%) Body Motion: 84%
[3]; 8 weeks, 30 mg/kg BID, listed as pridopidine, 30 mg/kg
  Recovery (%) Body Motion: showed efficacy
[3]; 12 weeks, 3 mg/kg BID
  Recovery (%) Gait: 60%
  Recovery (%) Paw Features: 0%
  Recovery (%) Paw Positioning: 35%
  Recovery (%) Rhythmicity: 41%
[3]; 12 weeks, 3 mg/kg BID, 3 mg/kg
  Recovery (%) Body Motion: 65%
[3]; 12 weeks, 3 mg/kg BID, listed as pridopidine, 3 mg/kg
  Recovery (%) Body Motion: showed efficacy
[3]; 12 weeks, 30 mg/kg BID
  Recovery (%) Paw Features: 69%
  Recovery (%) Paw Positioning: 52%
  Recovery (%) Rhythmicity: 10%
[3]; [5]
  Recovery (%) Body Motion: 59%
  Recovery (%) Gait: 100%
[3]; [6]
  Recovery (%) Body Motion: showed efficacy
  Recovery (%) Gait: Significant effects
[4]; 3 mg/kg BID, both ages (8 and 12 weeks)
  startle response: increased startle response
[4]; 30 mg/kg BID
  startle response: did not have a significant effect
[4]; 3 and 30 mg/kg BID, HET mice
  prepulse inhibition response: No genotype or treatment effects were observed
Neuroblastoma cell line
  secretion of the neuroprotective brain-derived neurotrophic factor (BDNF): enhances secretion
